Data published in ChEMBL document CHEMBL3632622, “Synthesis and biological evaluation of novel N-phenyl ureidobenzenesulfonate derivatives as potential anticancer agents. Part 2. Modulation of the ring B” (Eur J Med Chem, 2015).
Blank lines part the entries; values can stand above or below the molecule they belong to. Calls of active or inactive are those of the source. No cut-off for these calls is given here.

Assays:
M21 [1] = assay: Cell cycle arrest in human M21 cells assessed as accumulation at G2/M phase at 6.5 uM after 24 hrs by DAPI staining-based flow cytometry (reference value: 16%); format: functional
HT-29 = assay: Antiproliferative activity against human HT-29 cells assessed as growth inhibition incubated for 48 hrs by sulforhodamine B assay; format: functional, cell-based; conditions: HT-29, 48 h
MCF7 = assay: Antiproliferative activity against human MCF7 cells assessed as growth inhibition incubated for 48 hrs by sulforhodamine B assay; format: functional, cell-based; conditions: MCF7, 48 h
[2] = Antiproliferative activity against human HT1080 cells assessed as growth inhibition incubated for 48 hrs by sulforhodamine B assay; format: functional, cell-based, HT-1080; conditions: Homo sapiens, HT-1080, 48 h; read-out: IC50
M21 [3] = assay: Cell cycle arrest in human M21 cells assessed as accumulation at G0/G1 phase at 6.5 uM after 24 hrs by DAPI staining-based flow cytometry (reference value: 65.1%); format: functional
M21 [4] = assay: Antiproliferative activity against human M21 cells assessed as growth inhibition incubated for 48 hrs by sulforhodamine B assay; format: functional, cell-based; conditions: M21, 48 h
M21 [5] = assay: Cell cycle arrest in human M21 cells assessed as accumulation at S phase at 6.5 uM after 24 hrs by DAPI staining-based flow cytometry (reference value: 17.4%); format: functional
M21 [6] = assay: Cell cycle arrest in human M21 cells assessed as accumulation at subG1 phase at 6.5 uM after 24 hrs by DAPI staining-based flow cytometry (reference value: 1.5%); format: functional
M21 [7] = assay: Induction DNA DSBs in human M21 cells assessed as increase in gamma H2AX foci at 5.4 uM incubated for 24 hrs by DAPI staining based immunocytochemistry; format: cell-based
M21 [8] = assay: Cell cycle arrest in human M21 cells assessed as accumulation at S phase at 5.4 uM after 24 hrs by DAPI staining-based flow cytometry (reference value: 17.4%); format: functional
M21 [9] = assay: Cell cycle arrest in human M21 cells assessed as accumulation at G0/G1 phase at 5.4 uM after 24 hrs by DAPI staining-based flow cytometry (reference value: 65.1%); format: functional
M21 [10] = assay: Cell cycle arrest in human M21 cells assessed as accumulation at subG1 phase at 5.4 uM after 24 hrs by DAPI staining-based flow cytometry (reference value: 1.5%); format: functional
M21 [11] = assay: Cell cycle arrest in human M21 cells assessed as accumulation at G2/M phase at 5.4 uM after 24 hrs by DAPI staining-based flow cytometry (reference value: 16%); format: functional
M21 [12] = assay: Cell cycle arrest in human M21 cells assessed as accumulation at S phase at 1.5 uM after 24 hrs by DAPI staining-based flow cytometry (reference value: 17.4%); format: functional
M21 [13] = assay: Cell cycle arrest in human M21 cells assessed as accumulation at G0/G1 phase at 1.5 uM after 24 hrs by DAPI staining-based flow cytometry (reference value: 65.1%); format: functional
M21 [14] = assay: Induction DNA DSBs in human M21 cells assessed as increase in gamma H2AX foci at 0.75 uM incubated for 24 hrs by DAPI staining based immunocytochemistry; format: cell-based
M21 [15] = assay: Cell cycle arrest in human M21 cells assessed as accumulation at subG1 phase at 1.5 uM after 24 hrs by DAPI staining-based flow cytometry (reference value: 1.5%); format: functional
M21 [16] = assay: Cell cycle arrest in human M21 cells assessed as accumulation at G2/M phase at 1.5 uM after 24 hrs by DAPI staining-based flow cytometry (reference value: 16%); format: functional
M21 [17] = assay: Cell cycle arrest in human M21 cells assessed as accumulation at subG1 phase at 2.6 uM after 24 hrs by DAPI staining-based flow cytometry (reference value: 1.5%); format: functional
M21 [18] = assay: Cell cycle arrest in human M21 cells assessed as accumulation at S phase at 2.6 uM after 24 hrs by DAPI staining-based flow cytometry (reference value: 17.4%); format: functional
M21 [19] = assay: Cell cycle arrest in human M21 cells assessed as accumulation at G2/M phase at 2.6 uM after 24 hrs by DAPI staining-based flow cytometry (reference value: 16%); format: functional
M21 [20] = assay: Cell cycle arrest in human M21 cells assessed as accumulation at G0/G1 phase at 2.6 uM after 24 hrs by DAPI staining-based flow cytometry (reference value: 65.1%); format: functional
M21 [21] = assay: Cell cycle arrest in human M21 cells assessed as accumulation at subG1 phase at 2.2 uM after 24 hrs by DAPI staining-based flow cytometry (reference value: 1.5%); format: functional
M21 [22] = assay: Cell cycle arrest in human M21 cells assessed as accumulation at S phase at 2.2 uM after 24 hrs by DAPI staining-based flow cytometry (reference value: 17.4%); format: functional
M21 [23] = assay: Cell cycle arrest in human M21 cells assessed as accumulation at G0/G1 phase at 2.2 uM after 24 hrs by DAPI staining-based flow cytometry (reference value: 65.1%); format: functional
M21 [24] = assay: Cell cycle arrest in human M21 cells assessed as accumulation at G2/M phase at 2.2 uM after 24 hrs by DAPI staining-based flow cytometry (reference value: 16%); format: functional
M21 [25] = assay: Cell cycle arrest in human M21 cells assessed as accumulation at subG1 phase at 5.9 uM after 24 hrs by DAPI staining-based flow cytometry (reference value: 1.5%); format: functional
M21 [26] = assay: Cell cycle arrest in human M21 cells assessed as accumulation at S phase at 5.9 uM after 24 hrs by DAPI staining-based flow cytometry (reference value: 17.4%); format: functional
M21 [27] = assay: Induction DNA DSBs in human M21 cells assessed as increase in gamma H2AX foci at 15 uM incubated for 24 hrs by DAPI staining based immunocytochemistry; format: cell-based
M21 [28] = assay: Cell cycle arrest in human M21 cells assessed as accumulation at G2/M phase at 5.9 uM after 24 hrs by DAPI staining-based flow cytometry (reference value: 16%); format: functional
M21 [29] = assay: Cell cycle arrest in human M21 cells assessed as accumulation at G0/G1 phase at 5.9 uM after 24 hrs by DAPI staining-based flow cytometry (reference value: 65.1%); format: functional

SMILES: O=C(NCCCl)Nc1ccc(S(=O)(=O)Oc2c(Cl)cc(Cl)cc2Cl)cc1
Activity (M21 [1]): 72.6% | IC50 (HT-29): 1500 nM | IC50 (MCF7): 1700 nM | IC50 [2]: 1500 nM | Activity (M21 [3]): 11.6% | IC50 (M21 [4]): 1300 nM | Activity (M21 [5]): 7.3% | Activity (M21 [6]): 8.5%

SMILES: CC[C@@]1(O)C(=O)OCc2c1cc1n(c2=O)Cc2cc3c(CN(C)C)c(O)ccc3nc2-1 [TOPOTECAN]
Activity (M21 [12]): 31.8% | IC50 (HT-29): 230 nM | IC50 (MCF7): 24 nM | IC50 [2]: 180 nM | Activity (M21 [13]): 6.4% | Activity (M21 [14]): Active | IC50 (M21 [4]): 1400 nM | Activity (M21 [15]): 1.4% | Activity (M21 [16]): 60.4%

SMILES: CCCc1ccccc1OS(=O)(=O)c1ccc(NC(=O)NCCCl)cc1
IC50 (HT-29): 1900 nM | IC50 (MCF7): 2100 nM | IC50 [2]: 1900 nM | Activity (M21 [17]): 1.3% | IC50 (M21 [4]): 1300 nM | Activity (M21 [18]): 37% | Activity (M21 [19]): 25.7% | Activity (M21 [20]): 36%

Second part, led by results:

IC50 (HT-29): 4900 nM | IC50 (MCF7): 6100 nM
SMILES: Cc1ccccc1OS(=O)(=O)c1ccc(NC(=O)NCCCl)cc1
Activity (M21 [7]): Active | Activity (M21 [8]): 39% | Activity (M21 [9]): 39.2% | Activity (M21 [10]): 2.3% | IC50 [2]: 1600 nM | IC50 (M21 [4]): 4500 nM | Activity (M21 [11]): 19.5%

IC50 (HT-29): 1400 nM | IC50 (MCF7): 1700 nM
SMILES: CCOc1ccccc1OS(=O)(=O)c1ccc(NC(=O)NCCCl)cc1
Activity (M21 [21]): 6.7% | Activity (M21 [22]): 11.8% | Activity (M21 [23]): 28.8% | Activity (M21 [24]): 52.7% | IC50 [2]: 2200 nM | IC50 (M21 [4]): 1100 nM

IC50 (HT-29): 5700 nM | IC50 (MCF7): 7400 nM
SMILES: O=C(NCCCl)Nc1ccc(S(=O)(=O)Oc2ccccc2[N+](=O)[O-])cc1
Activity (M21 [25]): 1.4% | Activity (M21 [26]): 43% | Activity (M21 [27]): Active | Activity (M21 [28]): 23.1% | Activity (M21 [29]): 32.5% | IC50 [2]: 2400 nM | IC50 (M21 [4]): 3900 nM
